Assay results reported in patent US20170334899A1, “AMINO-SUBSTITUTED ISOTHIAZOLES” (Bayer Pharma Aktiengesellschaft, priority 2014, published 2017).

Tests used:
Format in all cases: cell-based
[1] = test system: human cervical tumor cell line HeLa (ATCC CCL-2); assay: SAC-Formation - Nocodazole-Induced Assay; conditions: Homo sapiens, HeLa, 24 h, HeLa cells, nocodazole 0.1 μg/ml together with test compound, decrease of mitotic cells (phospho-histone H3 Ser10)
Summary of the method: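 HeLa cells, plated overnight, were treated 24 h at 37 °C with nocodazole (0.1 μg/ml final) plus test compound (0.005–20 μM, 0.5% DMSO) added at the same time. After fixation, anti-phospho-histone H3 Ser10 and Hoechst staining gave the mitotic cell fraction by imaging. Values came from four-parameter Hill fits.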

HeLa-MaTu-ADR = assay: Proliferation assay (crystal violet), HeLa-MaTu-ADR; conditions: 96 h; HeLa-MaTu-ADR cells; 4 days incubation; crystal violet staining; read-out: IC50 inhibition of proliferation, HeLa-MaTu-ADR
Description: (§1) Cultivated tumor cells (cells were ordered from ATCC, except HeLa-MaTu and HeLa-MaTu-ADR, which were ordered from EPO-GmbH, Berlin) were plated at a density of 1000 to 5000 cells/well, depending on the growth rate of the respective cell line, in a 96-well multititer plate in 200 μL of their respective growth medium supplemented 10% fetal calf serum. After 24 hours, the cells of one plate (zero-point plate) were stained with crystal violet (see below), while the medium of the other plates was replaced by fresh culture medium (200 μl), to which the test substances were added in various concentrations (0 μM, as well as in the range of 0.001-10 μM; the final concentration of the solvent dimethyl sulfoxide was 0.5%). The cells were incubated for 4 days in the presence of test substances. Cell proliferation was determined by staining the cells with crystal violet: the cells were fixed by adding 20 μl/measuring point of an 11% glutaric aldehyde solution for 15 minutes at room temperature. After three washing cycles of the fixed cells with water, the plates were dried at room temperature. The cells were stained by adding 100 μl/measuring point of a 0.1% crystal violet solution (pH 3.0). After three washing cycles of the stained cells with water, the plates were dried at room temperature. The dye was dissolved by adding 100 μl/measuring point of a 10% acetic acid solution. Absorbtion was determined by photometry at a wavelength of 595 nm. The change of cell number, in percent, was calculated by normalization of the measured values to the aborbtion values of the zero-point plate (=0%) and the absorbtion of the untreated (0 μm) cells (=100%). The IC50 values were determined by means of a 4 parameter fit.

NCI-H460 = assay: Proliferation assay (crystal violet), NCI-H460; conditions: Homo sapiens, 96 h; NCI-H460 cells; 4 days incubation; crystal violet staining; read-out: IC50 inhibition of proliferation, NCI-H460
Description: as §1

DU145 = assay: Proliferation assay (crystal violet), DU145; conditions: Homo sapiens, DU-145, 96 h; DU145 cells; 4 days incubation; crystal violet staining; read-out: IC50 inhibition of proliferation, DU145
Description: as §1

Caco-2 = assay: Proliferation assay (crystal violet), Caco-2; conditions: Homo sapiens, 96 h; Caco-2 cells; 4 days incubation; crystal violet staining; read-out: IC50 inhibition of proliferation, Caco2
Description: as §1

B16F10 = assay: Proliferation assay (crystal violet), B16F10; conditions: Mus musculus, B16-F10, 96 h; B16F10 cells; 4 days incubation; crystal violet staining; read-out: IC50 inhibition of proliferation, B16F10
Description: as §1

Row | Structure (SMILES) | IC50 [1] [nM] | further results
1 | Cc1nsc(Nc2cncc(C(F)(F)F)n2)c1C(=O)Nc1ccc(OC2CCN(CC(F)(F)F)CC2)nc1 [Example 16, 3-Methyl-N-(6-{[1-(2,2,2-trifluoroethyl)piperidin-4-yl]oxy}pyridin-3-yl)-5-{[6-(trifluoromethyl)pyrazin-2-yl]amino}-1,2-thiazole-4-carboxamide] | 41 | IC50 (HeLa-MaTu-ADR): 290 nM; IC50 (NCI-H460): 150 nM; IC50 (DU145): 720 nM; IC50 (Caco-2): 240 nM; IC50 (B16F10): 290 nM
2 | Cc1nsc(Nc2cnc(C(F)(F)F)cn2)c1C(=O)Nc1ccc(OC2CCN(C(=O)OC(C)(C)C)CC2)c(F)c1 [Example 217, tert-butyl 4-(2-fluoro-4-{[(3-methyl-5-{[5-(trifluoromethyl)pyrazin-2-yl]amino}-1,2-thiazol-4-yl)carbonyl]amino}phenoxy)piperidine-1-carboxylate] | 860 | –
3 | CC(=O)N1CCC(Oc2ccc(NC(=O)c3c(C)nsc3Nc3cncc(C(F)(F)F)n3)cn2)CC1 [Example 17, N-{6-[(1-Acetylpiperidin-4-yl)oxy]pyridin-3-yl}-3-methyl-5-{[6-(trifluoromethyl)-pyrazin-2-yl]amino}-1,2-thiazole-4-carboxamide] | 210 | –
4 | CCN(CC)CCNC(=O)c1cccc(NC(=O)c2c(C)nsc2Nc2cc(C#N)ccn2)c1 [Example 174, 5-[(4-cyanopyridin-2-yl)amino]-N-(3-{[2-(diethylamino)ethyl]carbamoyl}phenyl)-3-methyl-1,2-thiazole-4-carboxamide] | 5800 | –
5 | Cc1nsc(Nc2cnc(C(F)(F)F)cn2)c1C(=O)Nc1ccc(OCC2CCCN(C(=O)OC(C)(C)C)C2)nc1 (stereo not shown) [Example 228, tert-butyl 3-{[(5-{[(3-methyl-5-{[5-(trifluoromethyl)pyrazin-2-yl]amino}-1,2-thiazol-4-yl)carbonyl]amino}pyridin-2-yl)oxy]methyl}piperidine-1-carboxylate] | 180 | –
6 | Cc1nsc(Nc2cncc(C(F)(F)F)n2)c1C(=O)Nc1ccc(OCCCN)nc1 [Example 209, N-[6-(3-aminopropoxy)pyridin-3-yl]-3-methyl-5-{[6-(trifluoromethyl)pyrazin-2-yl]amino}-1,2-thiazole-4-carboxamide] | 2100 | –
7 | Cc1nsc(Nc2cnc(C(F)(F)F)cn2)c1C(=O)Nc1ccc(OCCNC(=O)OC(C)(C)C)c(F)c1 [Example 215, tert-butyl [2-(2-fluoro-4-{[(3-methyl-5-{[5-(trifluoromethyl)pyrazin-2-yl]amino}-1,2-thiazol-4-yl)carbonyl]amino}phenoxy)ethyl]carbamate] | 210 | –
8 | COC(=O)CCc1cccc(NC(=O)c2c(C)nsc2Nc2ccc(C#N)cn2)c1 [Example 176, methyl 3-{3-[({5-[(5-cyanopyridin-2-yl)amino]-3-methyl-1,2-thiazol-4-yl}carbonyl)amino]phenyl}propanoate] | 230 | –
9 | Cc1nsc(Nc2cnc(C(F)(F)F)cn2)c1C(=O)Nc1ccc(OCCN)c(F)c1 [Example 221, 3-N-[4-(2-aminoethoxy)-3-fluorophenyl]-3-methyl-5-{[5-(trifluoromethyl)pyrazin-2-yl]amino}-1,2-thiazole-4-carboxamide] | 92 | –
10 | Cc1nsc(Nc2cncc(C(F)(F)F)n2)c1C(=O)Nc1ccc(OC2CCCN(C(=O)OC(C)(C)C)C2)nc1 (stereo not shown) [Example 189, tert-butyl 3-[(5-{[(3-methyl-5-{[6-(trifluoromethyl)pyrazin-2-yl]amino}-1,2-thiazol-4-yl)carbonyl]amino}pyridin-2-yl)oxy]piperidine-1-carboxylate] | 150 | –

More lines, main results first:

Row | IC50 [1] [nM] | Structure (SMILES) | further results
11 | 44 | Cc1nsc(Nc2cnc3ccccc3n2)c1C(=O)Nc1ccc(OC2CCN(C(=O)OC(C)(C)C)CC2)nc1 [Example 18, tert-Butyl 4-{[5-({[3-methyl-5-(quinoxalin-2-ylamino)-1,2-thiazol-4-yl]carbonyl}-amino)pyridin-2-yl]oxy}piperidine-1-carboxylate] | IC50 (HeLa-MaTu-ADR): 380 nM; IC50 (NCI-H460): 640 nM; IC50 (DU145): 910 nM; IC50 (Caco-2): 270 nM; IC50 (B16F10): 550 nM
12 | 53 | Cc1nsc(Nc2cnc3ccccc3n2)c1C(=O)Nc1ccc(OC2CCN(CC(F)F)CC2)nc1 [Example 20, N-(6-{[1-(2,2-difluoroethyl)piperidin-4-yl]oxy}pyridin-3-yl)-3-methyl-5-(quinoxalin-2-ylamino)-1,2-thiazole-4-carboxamide] | –
13 | 1600 | Cc1nsc(Nc2cnc3ccccc3n2)c1C(=O)Nc1ccc(NC(=O)C(C)(C)C)cc1 [Example 185, N-{4-[(2,2-dimethylpropanoyl)amino]phenyl}-3-methyl-5-(quinoxalin-2-ylamino)-1,2-thiazole-4-carboxamide] | –
14 | 1800 | Cc1nsc(Nc2cnc3ccccc3n2)c1C(=O)Nc1ccc(Nc2ccc(F)c(F)c2)nc1 [Example 245, N-{6-[(3,4-difluorophenyl)amino]pyridin-3-yl}-3-methyl-5-(quinoxalin-2-ylamino)-1,2-thiazole-4-carboxamide] | –
15 | 580 | COC(=O)c1cc(NC(=O)c2c(C)nsc2Nc2cnc3ccccc3n2)cc(C(=O)OC)c1 [Example 237, dimethyl 5-({[3-methyl-5-(quinoxalin-2-ylamino)-1,2-thiazol-4-yl]carbonyl}amino)isophthalate] | –
16 | 1400 | Cc1nsc(Nc2cnc3ccccc3n2)c1C(=O)Nc1ccc(NC2CCCN(C(=O)OC(C)(C)C)C2)nc1 (stereo not shown) [Example 241, tert-butyl 3-{[5-({[3-methyl-5-(quinoxalin-2-ylamino)-1,2-thiazol-4-yl]carbonyl}amino)pyridin-2-yl]amino}piperidine-1-carboxylate] | –
17 | 320 | Cc1nsc(Nc2cnc3ccccc3n2)c1C(=O)Nc1ccc(OC2CCNCC2)nc1 [Example 19, 3-Methyl-N-[6-(piperidin-4-yloxy)pyridin-3-yl]-5-(quinoxalin-2-ylamino)-1,2-thiazole-4-carboxamide] | –
18 | 770 | Cc1nsc(Nc2cncc(C(F)(F)F)n2)c1C(=O)Nc1ccc(C(=O)NC2CCN(C(=O)OC(C)(C)C)CC2)cc1 [Example 222, tert-butyl 4-[(4-{[(3-methyl-5-{[6-(trifluoromethyl)pyrazin-2-yl]amino}-1,2-thiazol-4-yl)carbonyl]amino}benzoyl)amino] piperidine-1-carboxylate] | –
19 | 3200 | CNS(=O)(=O)c1ccc(NC(=O)c2c(C)nsc2Nc2cc(C#N)ccn2)cc1 [Example 210, 5-[(4-cyanopyridin-2-yl)amino]-3-methyl-N-[4-(methylsulfamoyl)phenyl]-1,2-thiazole-4-carboxamide] | –
20 | 510 | Cc1nsc(Nc2cc(C#N)ccn2)c1C(=O)Nc1cccc(C(=O)OC(C)(C)C)c1 [Example 239, tert-butyl 3-[({5-[(4-cyanopyridin-2-yl)amino]-3-methyl-1,2-thiazol-4-yl}carbonyl)amino]benzoate] | –
21 | 630 | Cc1nsc(Nc2cnc3ccccc3n2)c1C(=O)Nc1cccc(NC(=O)C(C)(C)C)c1 [Example 186, N-{3-[(2,2-dimethylpropanoyl)amino]phenyl}-3-methyl-5-(quinoxalin-2-ylamino)-1,2-thiazole-4-carboxamide] | –
22 | 88 | Cc1nsc(Nc2cnccn2)c1C(=O)Nc1ccc(C(=O)OC(C)(C)C)cc1 [Example 184, tert-butyl 4-({[3-methyl-5-(pyrazin-2-ylamino)-1,2-thiazol-4-yl]carbonyl}amino)benzoate] | –
23 | 950 | Cc1nsc(Nc2ccc(C#N)cn2)c1C(=O)Nc1ccc(OCCC(=O)OC(C)(C)C)nc1 [Example 199, tert-butyl 3-({5-[({5-[(5-cyanopyridin-2-yl)amino]-3-methyl-1,2-thiazol-4-yl}carbonyl)amino]pyridin-2-yl}oxy)propanoate] | –
24 | 330 | CNC(=O)c1ccc(NC(=O)c2c(C)nsc2Nc2ccc(C#N)cn2)cc1F [Example 208, 5-[(5-cyanopyridin-2-yl)amino]-N-[3-fluoro-4-(methylcarbamoyl)phenyl]-3-methyl-1,2-thiazole-4-carboxamide] | –
